How the values were obtained:
PDGFRα kinase = molecular target: T1, PDGFRα kinase (Homo sapiens, UniProt P16234); assay: PDGFRα kinase assay (AlphaScreen); type: biochemical; details: read-out: Ranking of IC50 values, PDGFRα
T1 construct: purchased SignalChem
Method in brief: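 IC50 values came from duplicate serial dilutions, with product read by AlphaScreen. The reaction ran 30 min at 30 °C, then EDTA stop: 1.5 ng recombinant enzyme, biotin-poly(Glu4:Tyr1) substrate, 10 μM ATP, 10 mM MOPS pH 7.0, 10 mM MgCl2.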

[1] = test system: phosphorylation of FLT3 and its down-stream effector STAT5; assay: Western blotting of p-FLT3 and p-STAT5 in MV4-11 cells; type: cell-based; details: Homo sapiens; at 30 nM treatment, 3 hours, FLT3-ITD positive MV4-11 leukemia cells; read-out: inhibition activity against phosphorylation of FLT3 and its down-stream effector STAT5
Method in brief: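 MV4-11 cells held overnight in IMDM with 0.1% FBS, then 3 million cells treated with compound for 3 h. Whole lysates immunoblotted for p-FLT3 (Tyr-591), p-STAT5 (Tyr-694) and actin. Band intensities at 30 nM compared to DMSO control; % inhibition = (1 − relative intensity) × 100.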

FLT3 kinase = molecular target: T2, FLT3 kinase (Homo sapiens, UniProt P36888); assay: FLT3 kinase assay (AlphaScreen); type: biochemical; details: read-out: Ranking of IC50 values, FLT3
T2 construct: purchased SignalChem
T2 sequence (P36888 27-993): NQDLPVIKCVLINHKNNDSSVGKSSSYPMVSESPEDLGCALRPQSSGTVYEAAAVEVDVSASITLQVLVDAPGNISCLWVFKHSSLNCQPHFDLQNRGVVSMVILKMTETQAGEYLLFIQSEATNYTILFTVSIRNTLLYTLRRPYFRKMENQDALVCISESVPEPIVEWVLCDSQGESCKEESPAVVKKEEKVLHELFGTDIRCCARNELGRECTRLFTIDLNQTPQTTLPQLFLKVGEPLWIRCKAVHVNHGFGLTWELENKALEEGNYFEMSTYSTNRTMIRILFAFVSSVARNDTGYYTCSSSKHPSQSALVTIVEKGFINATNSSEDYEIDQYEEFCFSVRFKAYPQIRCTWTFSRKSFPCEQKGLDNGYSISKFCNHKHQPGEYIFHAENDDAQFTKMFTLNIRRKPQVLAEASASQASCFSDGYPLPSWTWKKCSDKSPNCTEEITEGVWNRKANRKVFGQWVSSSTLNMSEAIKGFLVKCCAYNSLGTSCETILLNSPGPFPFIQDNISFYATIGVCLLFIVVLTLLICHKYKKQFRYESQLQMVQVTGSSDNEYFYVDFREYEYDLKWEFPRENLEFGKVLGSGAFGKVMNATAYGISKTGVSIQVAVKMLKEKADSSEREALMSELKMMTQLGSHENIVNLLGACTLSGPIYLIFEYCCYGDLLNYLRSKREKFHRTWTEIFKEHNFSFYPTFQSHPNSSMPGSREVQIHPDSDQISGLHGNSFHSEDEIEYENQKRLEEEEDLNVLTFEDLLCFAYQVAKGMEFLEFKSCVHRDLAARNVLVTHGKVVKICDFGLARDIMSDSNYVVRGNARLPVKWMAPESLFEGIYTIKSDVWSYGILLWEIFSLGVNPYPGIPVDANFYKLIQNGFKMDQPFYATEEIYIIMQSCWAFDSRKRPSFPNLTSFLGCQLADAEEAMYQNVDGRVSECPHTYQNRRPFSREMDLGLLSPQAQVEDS
Method in brief: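 AlphaScreen detection of biotin-poly(Glu4:Tyr1) phosphorylation by 1.5 ng recombinant FLT3 (10 μM ATP, pH 7.0 MOPS, 10 mM MgCl2; 30 °C, 30 min, EDTA quench). IC50 values derived from serially diluted compound tested in duplicate.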

T1 sequence (P16234 24-1089): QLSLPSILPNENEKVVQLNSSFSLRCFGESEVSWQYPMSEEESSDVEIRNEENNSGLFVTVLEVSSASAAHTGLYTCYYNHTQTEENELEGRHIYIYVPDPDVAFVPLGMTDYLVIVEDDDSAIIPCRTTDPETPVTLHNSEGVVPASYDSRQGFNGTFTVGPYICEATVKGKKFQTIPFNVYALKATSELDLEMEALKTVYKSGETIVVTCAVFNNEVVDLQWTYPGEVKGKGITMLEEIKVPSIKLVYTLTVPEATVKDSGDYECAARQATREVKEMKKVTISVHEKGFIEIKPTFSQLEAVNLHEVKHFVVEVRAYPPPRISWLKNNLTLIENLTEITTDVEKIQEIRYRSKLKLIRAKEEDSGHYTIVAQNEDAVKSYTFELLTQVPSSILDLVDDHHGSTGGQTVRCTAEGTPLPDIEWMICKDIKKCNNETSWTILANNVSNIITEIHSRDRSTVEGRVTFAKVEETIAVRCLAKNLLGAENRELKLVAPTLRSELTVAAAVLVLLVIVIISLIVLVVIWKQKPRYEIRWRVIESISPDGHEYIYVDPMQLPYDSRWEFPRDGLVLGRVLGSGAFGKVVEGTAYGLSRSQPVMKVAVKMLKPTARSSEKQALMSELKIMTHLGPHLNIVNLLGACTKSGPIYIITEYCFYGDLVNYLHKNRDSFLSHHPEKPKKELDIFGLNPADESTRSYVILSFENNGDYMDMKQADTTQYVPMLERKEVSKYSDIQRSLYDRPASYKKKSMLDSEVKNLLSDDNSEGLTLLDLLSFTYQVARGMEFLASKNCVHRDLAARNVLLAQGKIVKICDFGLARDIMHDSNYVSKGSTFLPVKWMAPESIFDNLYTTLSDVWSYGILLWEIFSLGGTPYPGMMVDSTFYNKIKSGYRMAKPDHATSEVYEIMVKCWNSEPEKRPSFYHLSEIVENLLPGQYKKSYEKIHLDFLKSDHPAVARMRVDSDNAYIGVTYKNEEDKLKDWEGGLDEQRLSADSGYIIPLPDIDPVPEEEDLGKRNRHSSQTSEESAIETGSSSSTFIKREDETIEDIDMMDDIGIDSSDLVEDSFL

SMILES | IC50 (PDGFRα kinase) [nM] | inhibition at 0.03 µM [1] [%] | IC50 (FLT3 kinase) [nM]
Cn1ncc2ccc(-c3n[nH]c4c3Cc3sc(-c5ccc(CN6CCOCC6)cn5)cc3-4)cc21 [Compound 95, 4-((6-(3-(1-methyl-1H-indazol-6-yl)-1,4-dihydro-thieno[2′,3′:4,5]cyclopenta [1,2-c]pyrazol-6-yl)pyridin-3-yl)methyl) morpholine] | 1 to 10 | > 50 | < 1
Cn1ncc2ccc(-c3n[nH]c4c3Cc3sc(C5CCNCC5)cc3-4)cc21 [Compound 96, 3-(1-methyl-1H-indazol-6-yl)-6-(piperidin-4-yl)-1,4-dihydrothieno [2′,3′:4,5]cyclopenta [1,2-c]pyrazole] | 1 to 10 | > 50 | < 1
Cn1ncc2ccc(-c3n[nH]c4c3Cc3sc(-c5ccc(CN6CCCOCC6)cc5)cc3-4)cc21 [Compound 97, 4-(4-(3-(1-methyl-1H-indazol-6-yl)-1,4-dihydro-thieno[2′,3′:4,5]cyclopenta [1,2-c]pyrazol-6-yl)benzyl)-1,4-oxazepane] | 30 to 100 | > 50 | < 1
Cn1ncc2ccc(-c3n[nH]c4c3Cc3sc(C5CCN(C(=O)CN6CCOCC6)CC5)cc3-4)cc21 [Compound 98, 1-(4-(3-(1-methyl-1H-indazol-6-yl)-1,4-dihydro-thieno[2′,3′:4,5]cyclopenta [1,2-c]pyrazol-6-yl)piperidin-1-yl)-2-morpholinoethan-1-one] | 1 to 10 | > 50 | < 1
Cn1ncc2ccc(-c3n[nH]c4c3Cc3sc(-c5ccc(CN6CCCC6)cc5)cc3-4)cc21 [Compound 99, 3-(1-methyl-1H-indazol-6-yl)-6-(4-(pyrrolidin-1-ylmethyl)phenyl)-1,4-dihydrothieno[2′,3′:4,5] cyclopenta[1,2-c]pyrazole] | 1 to 10 | > 50 | < 1
Cn1ncc2ccc(-c3n[nH]c4c3Cc3sc(-c5ccc(CN6CCCCC6)cc5)cc3-4)cc21 [Compound 100, 3-(1-methyl-1H-indazol-6-yl)-6-(4-(piperidin-1-ylmethyl)phenyl)-1,4-dihydrothieno[2′,3′:4,5] cyclopenta[1,2-c]pyrazole] | 1 to 10 | > 50 | < 1
Cn1ncc2ccc(-c3n[nH]c4c3Cc3sc(-c5ccc(CN6CC7(COC7)C6)cc5)cc3-4)cc21 [Compound 102, 6-(4-(3-(1-methyl-1H-indazol-6-yl)-1,4-dihydro-thieno[2′,3′:4,5]cyclopenta [1,2-c]pyrazol-6-yl)benzyl)-2-oxa-6-azaspiro [3.3]heptane] | 1 to 10 | > 50 | < 1
Cn1ncc2ccc(-c3n[nH]c4c3Cc3sc(-c5ccc(CN6CCC6)cc5)cc3-4)cc21 [Compound 103, 6-(4-(azetidin-1-ylmethyl)phenyl)-3-(1-methyl-1H-indazol-6-yl)-1,4-dihydro-thieno[2′,3′:4,5]cyclopenta [1,2-c]pyrazole] | 1 to 10 | > 50 | < 1
COC1CN(Cc2ccc(-c3cc4c(s3)Cc3c(-c5ccc6cnn(C)c6c5)n[nH]c3-4)cc2)C1 [Compound 105, 6-(4-((3-methoxyazeti-din-1-yl)methyl)phenyl)-3-(1-methyl-1H-indazol-6-yl)-1,4-dihydrothieno [2′,3′:4,5]cyclopenta [1,2-c]pyrazole] | 1 to 10 | > 50 | < 1
